# Data as given in patent US12303592B2, “Formulations for parenteral delivery of compounds and uses thereof” (Wyeth, LLC, priority 2006, dated 2025).
# Columns and labels:
# [1] = Buffer compatibility: stability of MNTX in pH 7 phosphate or glycine solution (Tables 9, 10), HPLC Method A; type: physicochemical
# Description: Evaluation of phosphate buffers solution stability. We have also assessed different buffers to determine compatibility and whether various conditions would convey further stability to methylnaltrexone solutions. Table 9 and Table 10 show results (HPLC Method A) of total degradant formation over time in methylnaltrexone solutions prepared in phosphate solution (Table 9), and glycine solution (Table 10). We found at pH 7, glycine provides better stability characteristics to samples than phosphate.
# [2] = white crystalline powder from Mallinckrodt; cited from earlier work
compound,measurement,setting,value
"C[N+]1(CC2CC2)CC[C@]23c4c5ccc(O)c4O[C@H]2C(=O)CC[C@@]3(O)[C@H]1C5 (stereo partly shown) [MNTX, methylnaltrexone bromide]",Appearance and Description,"[1]; pH 7, 0.02M Glycine Solution, 40° C., r24 0 time, r26 1 day, r28 2 days, r30 6 days, r32 9 days, r34 14 days, r36 21 days","Clear, colorless"
same,Appearance and Description,"[1]; pH 7, 0.02M Glycine Solution, Room Temperature, r8 0 time, r11 1 day, r13 2 days, r15 6 days, r18 9 days, r20 14 days, r22 21 days","Clear, colorless"
same,Appearance and Description,"[1]; pH 7, 0.02M Phosphate Solution, 40° C., r22 0 time, r24 1 day, r26 2 days, r28 6 days, r30 9 days, r32 14 days, r35 21 days, elapsed 0 time","Clear, colorless"
same,Appearance and Description,"[1]; pH 7, 0.02M Phosphate Solution, 60° C., r38 0 time, r40 1 day, r42 2 days, r44 6 days, r46 9 days, r48 14 days, r50 21 days, elapsed 0 time","Clear, colorless"
same,Appearance and Description,"[1]; pH 7, 0.02M Phosphate Solution, 60° C., r38 0 time, r40 1 day, r42 2 days, r44 6 days, r46 9 days, r48 14 days, r50 21 days, elapsed 9 days","Clear, yellow"
same,Appearance and Description,"[1]; pH 7, 0.02M Phosphate Solution, Room Temperature, r8 0 time, r10 1 day, r12 2 days, r14 6 days, r16 9 days, r18 14 days, r20 21 days","Clear, colorless"
same,solubility in water,[2],freely soluble in water
